Assay results as given in PMC8371461 (Frontiers in Pharmacology, 2021).

Key:
[1] = target: T1, PKMYT1 (Homo sapiens, UniProt Q99640); experiment: kinome scan; assay type: binding; conditions: 10 µM
T1 construct: purchased DiscoverX (KINOMEscan)

[2] = target: T2, DYRK1B (Homo sapiens, UniProt Q9Y463); experiment: kinome scan; assay type: binding; conditions: 10 µM
T2 construct: purchased DiscoverX (KINOMEscan)

[3] = target: T3, RIOK2 (Homo sapiens, UniProt Q9BVS4); experiment: kinome scan; assay type: binding
T3 construct: T7 phage fusion (kinase-tagged phage); purchased DiscoverX; host or cells: BL21-derived E. coli (T7 phage)

[4] = target: T4, IRAK3 (Homo sapiens, UniProt Q9Y616); experiment: kinome scan; assay type: binding; conditions: 10 µM
T4 construct: purchased DiscoverX (KINOMEscan)

[5] = target: T5, LTK (Homo sapiens, UniProt P29376); experiment: kinome scan; assay type: binding; conditions: 10 µM
T5 construct: purchased DiscoverX (KINOMEscan)

[6] = target: T6, BRAF (Homo sapiens, UniProt P15056); experiment: kinome scan; assay type: binding; conditions: 10 µM
T6 construct: purchased DiscoverX (KINOMEscan)

[7] = target: T7, NEK6 (Homo sapiens, UniProt Q9HC98); experiment: kinome scan; assay type: binding; conditions: 10 µM
T7 construct: purchased DiscoverX (KINOMEscan)

[8] = target: T8, BTK (Homo sapiens, UniProt Q06187); experiment: kinome scan; assay type: binding; conditions: 10 µM
T8 construct: purchased DiscoverX (KINOMEscan)

[9] = target: T9, HUNK (Homo sapiens, UniProt P57058); experiment: kinome scan; assay type: binding; conditions: 10 µM
T9 construct: purchased DiscoverX (KINOMEscan)

[10] = target: T10, AURKB (Homo sapiens, UniProt Q96GD4); experiment: kinome scan; assay type: binding; conditions: 10 µM
T10 construct: purchased DiscoverX (KINOMEscan)

[11] = target: T11, GRK7 (Homo sapiens, UniProt Q8WTQ7); experiment: kinome scan; assay type: binding; conditions: 10 µM
T11 construct: purchased DiscoverX (KINOMEscan)

[12] = target: T12, RSK4(Kin.Dom.1-N-terminal) (Homo sapiens, UniProt Q9UK32); experiment: kinome scan; assay type: binding; conditions: 10 µM
T12 construct: RSK4(Kin.Dom.1-N-terminal); purchased DiscoverX (KINOMEscan)

[13] = target: T13, TXK (Homo sapiens, UniProt P42681); experiment: kinome scan; assay type: binding; conditions: 10 µM
T13 construct: purchased DiscoverX (KINOMEscan)

[14] = target: T14, SIK2 (Homo sapiens, UniProt Q9H0K1); experiment: kinome scan; assay type: binding; conditions: 10 µM
T14 construct: purchased DiscoverX (KINOMEscan)

[15] = target: T15, EPHA1 (Homo sapiens, UniProt P21709); experiment: kinome scan; assay type: binding; conditions: 10 µM
T15 construct: purchased DiscoverX (KINOMEscan)

[16] = target: T16, BRK (Homo sapiens, UniProt Q13882); experiment: kinome scan; assay type: binding; conditions: 10 µM
T16 construct: purchased DiscoverX (KINOMEscan)

[17] = target: T17, TRKB (Homo sapiens, UniProt Q16620); experiment: kinome scan; assay type: binding; conditions: 10 µM
T17 construct: purchased DiscoverX (KINOMEscan)

[18] = target: T18, IKK-alpha (Homo sapiens, UniProt O15111); experiment: kinome scan; assay type: binding; conditions: 10 µM
T18 construct: purchased DiscoverX (KINOMEscan)

[19] = target: T19, PFTK1 (Homo sapiens, UniProt O94921); experiment: kinome scan; assay type: binding; conditions: 10 µM
T19 construct: purchased DiscoverX (KINOMEscan)

[20] = target: T20, CAMK2B (Homo sapiens, UniProt Q13554); experiment: kinome scan; assay type: binding; conditions: 10 µM
T20 construct: purchased DiscoverX (KINOMEscan)

[21] = target: T21, HPK1 (Homo sapiens, UniProt Q92918); experiment: kinome scan; assay type: binding; conditions: 10 µM
T21 construct: purchased DiscoverX (KINOMEscan)

[22] = target: T22, LOK (Homo sapiens, UniProt O94804); experiment: kinome scan; assay type: binding; conditions: 10 µM
T22 construct: purchased DiscoverX (KINOMEscan)

[23] = target: T23, IKK-epsilon (Homo sapiens, UniProt Q14164); experiment: kinome scan; assay type: binding; conditions: 10 µM
T23 construct: purchased DiscoverX (KINOMEscan)

[24] = target: T24, MET (Homo sapiens, UniProt P08581); experiment: kinome scan; assay type: binding; conditions: 10 µM
T24 construct: purchased DiscoverX (KINOMEscan)

[25] = target: T25, ERN1 (Homo sapiens, UniProt O75460); experiment: kinome scan; assay type: binding; conditions: 10 µM
T25 construct: purchased DiscoverX (KINOMEscan)

[26] = target: T26, MAST1 (Homo sapiens, UniProt Q9Y2H9); experiment: kinome scan; assay type: binding; conditions: 10 µM
T26 construct: purchased DiscoverX (KINOMEscan)

[27] = target: T27, ABL1(T315I)-phosphorylated (Homo sapiens, UniProt P00519, T315I); experiment: kinome scan; assay type: binding; conditions: 10 µM
T27 construct: purchased DiscoverX (KINOMEscan)

[28] = target: T28, LCK (Homo sapiens, UniProt P06239); experiment: kinome scan; assay type: binding; conditions: 10 µM
T28 construct: purchased DiscoverX (KINOMEscan)

[29] = system: Rat pregnane X receptor (rPXR) signaling pathway; design: method as in CHEMBL2114797; conditions: reported activity, data mining; ref CHEMBL2114797; cited from earlier work
[30] = target: T29, WEE1 (Homo sapiens, UniProt P30291); experiment: kinome scan; assay type: binding; conditions: 10 µM
T29 construct: purchased DiscoverX (KINOMEscan)

[31] = target: T30, AAK1 (Homo sapiens, UniProt Q2M2I8); experiment: kinome scan; assay type: binding; conditions: 10 µM
T30 construct: purchased DiscoverX (KINOMEscan)

[32] = target: T31, PCTK3 (Homo sapiens, UniProt Q07002); experiment: kinome scan; assay type: binding; conditions: 10 µM
T31 construct: purchased DiscoverX (KINOMEscan)

[33] = target: T32, CSNK1G3 (Homo sapiens, UniProt Q9Y6M4); experiment: kinome scan; assay type: binding
T32 construct: purchased DiscoverX (KINOMEscan)

[34] = target: T33, SYK (Homo sapiens, UniProt P43405); experiment: kinome scan; assay type: binding; conditions: 10 µM
T33 construct: purchased DiscoverX (KINOMEscan)

[35] = target: T34, JNK2 (Homo sapiens, UniProt P45984); experiment: kinome scan; assay type: binding; conditions: 10 µM
T34 construct: purchased DiscoverX (KINOMEscan)

[36] = target: T35, EPHA6 (Homo sapiens, UniProt Q9UF33); experiment: kinome scan; assay type: binding; conditions: 10 µM
T35 construct: purchased DiscoverX (KINOMEscan)

[37] = target: T36, MUSK (Homo sapiens, UniProt O15146); experiment: kinome scan; assay type: binding; conditions: 10 µM
T36 construct: purchased DiscoverX (KINOMEscan)

[38] = target: T37, HCK (Homo sapiens, UniProt P08631); experiment: kinome scan; assay type: binding; conditions: 10 µM
T37 construct: purchased DiscoverX (KINOMEscan)

[39] = target: T38, STK35 (Homo sapiens, UniProt Q8TDR2); experiment: kinome scan; assay type: binding; conditions: 10 µM
T38 construct: purchased DiscoverX (KINOMEscan)

[40] = target: T39, KIT (Homo sapiens, UniProt P10721); experiment: kinome scan; assay type: binding
T39 construct: purchased DiscoverX (KINOMEscan)

[41] = target: T40, PRKX (Homo sapiens, UniProt P51817); experiment: kinome scan; assay type: binding; conditions: 10 µM
T40 construct: purchased DiscoverX (KINOMEscan)

[42] = target: T41, PIK3C2B (Homo sapiens, UniProt O00750); experiment: kinome scan; assay type: binding; conditions: 10 µM
T41 construct: purchased DiscoverX (KINOMEscan)

T3 sequence (Q9BVS4 whole entry, the tested form may be a part): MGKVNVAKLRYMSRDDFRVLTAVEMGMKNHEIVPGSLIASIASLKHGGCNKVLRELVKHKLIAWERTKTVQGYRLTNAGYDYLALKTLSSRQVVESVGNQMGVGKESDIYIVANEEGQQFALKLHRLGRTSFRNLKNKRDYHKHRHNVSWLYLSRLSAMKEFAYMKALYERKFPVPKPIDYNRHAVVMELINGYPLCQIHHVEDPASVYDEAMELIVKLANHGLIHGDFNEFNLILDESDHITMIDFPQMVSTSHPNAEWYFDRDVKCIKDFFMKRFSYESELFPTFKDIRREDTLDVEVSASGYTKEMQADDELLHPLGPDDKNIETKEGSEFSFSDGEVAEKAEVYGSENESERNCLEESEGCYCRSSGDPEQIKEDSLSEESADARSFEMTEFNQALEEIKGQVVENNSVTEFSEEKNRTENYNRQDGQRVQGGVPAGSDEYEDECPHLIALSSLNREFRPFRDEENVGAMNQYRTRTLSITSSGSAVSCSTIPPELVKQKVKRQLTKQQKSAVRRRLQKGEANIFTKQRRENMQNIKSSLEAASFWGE
T32 sequence (Q9Y6M4 whole entry): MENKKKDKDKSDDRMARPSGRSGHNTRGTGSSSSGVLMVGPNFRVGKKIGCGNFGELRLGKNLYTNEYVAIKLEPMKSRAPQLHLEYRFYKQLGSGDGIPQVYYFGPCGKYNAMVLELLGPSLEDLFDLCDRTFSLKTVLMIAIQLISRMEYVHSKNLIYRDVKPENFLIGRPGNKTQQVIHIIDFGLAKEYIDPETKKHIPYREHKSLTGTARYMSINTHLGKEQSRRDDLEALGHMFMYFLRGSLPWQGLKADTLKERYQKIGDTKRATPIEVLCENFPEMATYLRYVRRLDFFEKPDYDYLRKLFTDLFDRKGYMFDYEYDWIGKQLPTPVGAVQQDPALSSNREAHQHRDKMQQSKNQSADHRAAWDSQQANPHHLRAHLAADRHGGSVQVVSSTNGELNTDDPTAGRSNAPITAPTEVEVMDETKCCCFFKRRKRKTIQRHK
T39 sequence (P10721 26-976): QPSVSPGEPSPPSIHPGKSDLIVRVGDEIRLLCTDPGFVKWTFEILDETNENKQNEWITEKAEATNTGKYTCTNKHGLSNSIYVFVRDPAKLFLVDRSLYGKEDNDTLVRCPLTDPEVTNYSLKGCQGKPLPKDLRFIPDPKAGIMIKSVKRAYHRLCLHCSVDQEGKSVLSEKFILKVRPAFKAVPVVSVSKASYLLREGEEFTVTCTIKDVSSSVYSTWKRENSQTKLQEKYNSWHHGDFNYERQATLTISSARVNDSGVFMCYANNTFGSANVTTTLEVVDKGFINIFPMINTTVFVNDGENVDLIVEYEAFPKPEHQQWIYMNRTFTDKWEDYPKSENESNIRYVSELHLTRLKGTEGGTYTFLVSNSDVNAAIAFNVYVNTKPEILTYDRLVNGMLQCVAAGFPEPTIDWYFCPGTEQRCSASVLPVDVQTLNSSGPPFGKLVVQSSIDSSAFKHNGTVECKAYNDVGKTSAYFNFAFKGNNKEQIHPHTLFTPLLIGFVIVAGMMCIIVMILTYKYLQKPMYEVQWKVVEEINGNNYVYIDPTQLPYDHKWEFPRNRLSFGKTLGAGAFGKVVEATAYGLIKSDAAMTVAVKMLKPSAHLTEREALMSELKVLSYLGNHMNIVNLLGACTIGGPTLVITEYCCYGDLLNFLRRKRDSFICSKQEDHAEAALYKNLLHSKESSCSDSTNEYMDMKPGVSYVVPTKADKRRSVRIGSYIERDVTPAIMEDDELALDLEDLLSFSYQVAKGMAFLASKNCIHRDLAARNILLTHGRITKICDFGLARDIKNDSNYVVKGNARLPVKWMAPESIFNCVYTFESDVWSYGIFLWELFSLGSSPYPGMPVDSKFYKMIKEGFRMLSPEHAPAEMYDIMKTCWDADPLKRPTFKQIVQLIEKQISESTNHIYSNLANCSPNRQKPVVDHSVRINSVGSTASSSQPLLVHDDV
T40 sequence (P51817 whole entry): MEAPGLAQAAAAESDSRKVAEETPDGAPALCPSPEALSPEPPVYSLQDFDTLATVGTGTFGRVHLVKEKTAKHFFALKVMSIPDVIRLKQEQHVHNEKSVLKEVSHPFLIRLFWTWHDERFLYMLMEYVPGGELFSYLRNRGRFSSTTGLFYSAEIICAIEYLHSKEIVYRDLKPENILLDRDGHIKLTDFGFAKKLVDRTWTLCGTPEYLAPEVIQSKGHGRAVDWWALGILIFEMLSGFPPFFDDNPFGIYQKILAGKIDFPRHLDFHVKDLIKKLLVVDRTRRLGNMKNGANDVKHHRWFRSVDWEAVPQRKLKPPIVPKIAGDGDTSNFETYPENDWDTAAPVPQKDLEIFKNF
T38 sequence (Q8TDR2 whole entry): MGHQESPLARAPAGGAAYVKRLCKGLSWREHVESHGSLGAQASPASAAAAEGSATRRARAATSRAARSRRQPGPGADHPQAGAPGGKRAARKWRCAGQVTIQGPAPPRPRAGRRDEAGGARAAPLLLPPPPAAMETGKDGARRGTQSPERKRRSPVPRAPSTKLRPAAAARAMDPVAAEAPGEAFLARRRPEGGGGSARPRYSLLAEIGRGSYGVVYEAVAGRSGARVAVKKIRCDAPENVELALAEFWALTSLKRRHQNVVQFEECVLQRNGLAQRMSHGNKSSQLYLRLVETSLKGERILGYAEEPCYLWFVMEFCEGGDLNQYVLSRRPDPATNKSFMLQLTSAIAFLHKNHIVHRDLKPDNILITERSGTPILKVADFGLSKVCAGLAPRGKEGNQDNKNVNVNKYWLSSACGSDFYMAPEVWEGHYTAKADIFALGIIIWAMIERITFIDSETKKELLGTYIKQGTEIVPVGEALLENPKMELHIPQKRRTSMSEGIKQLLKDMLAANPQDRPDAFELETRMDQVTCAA
T5 sequence (P29376 17-864): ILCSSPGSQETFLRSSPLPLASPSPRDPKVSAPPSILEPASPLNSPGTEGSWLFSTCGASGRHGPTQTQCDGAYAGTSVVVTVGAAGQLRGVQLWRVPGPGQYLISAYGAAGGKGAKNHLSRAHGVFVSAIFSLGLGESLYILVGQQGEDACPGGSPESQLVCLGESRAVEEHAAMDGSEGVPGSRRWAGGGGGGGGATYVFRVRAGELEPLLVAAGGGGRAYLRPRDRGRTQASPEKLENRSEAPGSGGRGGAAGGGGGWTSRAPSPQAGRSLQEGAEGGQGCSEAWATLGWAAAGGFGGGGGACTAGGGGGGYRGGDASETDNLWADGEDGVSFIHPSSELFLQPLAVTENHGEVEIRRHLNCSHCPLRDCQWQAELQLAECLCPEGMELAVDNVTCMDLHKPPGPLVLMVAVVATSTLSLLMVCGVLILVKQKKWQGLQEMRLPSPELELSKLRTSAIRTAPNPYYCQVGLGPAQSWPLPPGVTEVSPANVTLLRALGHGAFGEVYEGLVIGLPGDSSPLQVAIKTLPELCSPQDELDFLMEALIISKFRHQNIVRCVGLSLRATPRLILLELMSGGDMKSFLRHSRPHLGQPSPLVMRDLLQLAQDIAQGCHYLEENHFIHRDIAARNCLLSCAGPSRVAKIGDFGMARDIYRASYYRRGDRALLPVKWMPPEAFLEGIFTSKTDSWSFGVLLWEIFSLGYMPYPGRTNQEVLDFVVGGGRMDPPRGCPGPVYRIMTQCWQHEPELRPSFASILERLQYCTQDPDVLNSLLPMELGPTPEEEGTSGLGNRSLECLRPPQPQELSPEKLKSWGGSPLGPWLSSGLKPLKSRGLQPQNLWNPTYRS
T7 sequence (Q9HC98 whole entry): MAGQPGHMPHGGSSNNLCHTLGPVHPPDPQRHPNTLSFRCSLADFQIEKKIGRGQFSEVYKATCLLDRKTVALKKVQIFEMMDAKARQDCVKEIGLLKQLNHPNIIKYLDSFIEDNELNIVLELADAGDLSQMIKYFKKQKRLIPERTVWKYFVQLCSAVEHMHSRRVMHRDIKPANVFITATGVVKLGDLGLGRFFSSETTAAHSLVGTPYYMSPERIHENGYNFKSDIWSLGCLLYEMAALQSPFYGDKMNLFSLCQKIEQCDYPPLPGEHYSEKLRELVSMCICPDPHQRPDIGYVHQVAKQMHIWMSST
T4 sequence (Q9Y616 whole entry): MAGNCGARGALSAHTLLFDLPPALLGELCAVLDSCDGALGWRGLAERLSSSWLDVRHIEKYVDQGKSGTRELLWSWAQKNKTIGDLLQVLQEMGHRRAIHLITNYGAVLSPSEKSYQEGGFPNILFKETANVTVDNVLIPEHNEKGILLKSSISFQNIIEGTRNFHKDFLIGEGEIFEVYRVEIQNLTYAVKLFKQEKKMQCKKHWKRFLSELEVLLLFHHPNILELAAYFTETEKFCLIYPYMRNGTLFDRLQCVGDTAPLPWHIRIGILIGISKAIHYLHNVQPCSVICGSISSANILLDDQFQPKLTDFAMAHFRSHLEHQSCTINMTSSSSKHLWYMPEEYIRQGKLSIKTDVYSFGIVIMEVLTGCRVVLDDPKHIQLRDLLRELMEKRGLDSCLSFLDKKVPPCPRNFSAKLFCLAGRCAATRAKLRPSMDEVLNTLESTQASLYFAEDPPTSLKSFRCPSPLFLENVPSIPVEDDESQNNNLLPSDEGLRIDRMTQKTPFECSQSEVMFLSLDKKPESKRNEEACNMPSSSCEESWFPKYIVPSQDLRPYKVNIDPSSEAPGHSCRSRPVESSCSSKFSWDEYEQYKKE
T34 sequence (P45984 whole entry): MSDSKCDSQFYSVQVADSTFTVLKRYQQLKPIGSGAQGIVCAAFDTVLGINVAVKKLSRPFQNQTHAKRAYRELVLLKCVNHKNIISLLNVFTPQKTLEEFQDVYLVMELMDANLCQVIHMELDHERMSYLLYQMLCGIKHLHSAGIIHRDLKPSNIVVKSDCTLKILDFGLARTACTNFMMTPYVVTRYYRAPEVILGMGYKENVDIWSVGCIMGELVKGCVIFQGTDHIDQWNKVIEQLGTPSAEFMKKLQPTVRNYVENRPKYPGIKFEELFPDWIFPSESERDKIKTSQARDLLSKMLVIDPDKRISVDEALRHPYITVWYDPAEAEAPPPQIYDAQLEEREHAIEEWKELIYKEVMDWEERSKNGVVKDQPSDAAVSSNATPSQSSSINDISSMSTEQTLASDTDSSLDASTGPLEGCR

Nc1ccc(N=Nc2ccccc2)c(N)n1 [phenazopyridine, 2,6-diamino-3-(phenylazo)pyridine]
kinase inhibition [1]: 85 | remaining binding (% of control) [2]: 69 | remaining binding (% of control) ([3]; 10 µM): 0 | remaining binding at 10 µM ([3]; read-out: % Of control): 0% | kinase inhibition [4]: 71 | kinase inhibition [5]: 96 | kinase inhibition [6]: 96 | kinase inhibition [7]: 100 | kinase inhibition [8]: 100 | kinase inhibition [9]: 100 | kinase inhibition [10]: 72 | kinase inhibition [11]: 100 | kinase inhibition [12]: 86 | remaining binding (% of control) [13]: 100 | kinase inhibition [14]: 92 | kinase inhibition [15]: 100 | kinase inhibition [16]: 100 | kinase inhibition [17]: 81 | kinase inhibition [18]: 64 | kinase inhibition [19]: 100 | kinase inhibition [20]: 100 | kinase inhibition [21]: 67 | kinase inhibition [22]: 100 | kinase inhibition [23]: 72 | kinase inhibition [24]: 100 | kinase inhibition [25]: 82 | kinase inhibition [26]: 85 | kinase inhibition [27]: 100 | kinase inhibition [28]: 96 | Concentration [29]: 7 µM | kinase inhibition [30]: 100 | kinase inhibition [31]: 79 | kinase inhibition [32]: 75 | kinase inhibition ([33]; CSNK1G3, 10 µM): 100 | remaining binding at 10 µM ([33]; Casein kinase 1 isoform γ 3 (CK1), read-out: Kinome scan (% of control at 10 µM)): 44% | kinase inhibition [34]: 100 | kinase inhibition [35]: 94 | kinase inhibition [36]: 91 | kinase inhibition [37]: 91 | kinase inhibition [38]: 100 | kinase inhibition [39]: 93 | percent of control binding remaining ([40]; KIT, 10 µM): 41 | remaining binding at 10 µM ([40]; c-KIT wt, read-out: Kinome scan (% of control at 10 µM)): 41% | kinase inhibition [41]: 91 | kinase inhibition [42]: 70
